Read-outs that look alike come from different tables or passages of the source.
Key:
human CTPS1 = target: T1, human CTPS1 (Homo sapiens, UniProt P17812); assay: Human CTPS1 enzyme inhibition (ADP-Glo Max assay); type: biochemical
T1 construct: purchased Proteros biostructures GmbH
T1 sequence (P17812 1-591): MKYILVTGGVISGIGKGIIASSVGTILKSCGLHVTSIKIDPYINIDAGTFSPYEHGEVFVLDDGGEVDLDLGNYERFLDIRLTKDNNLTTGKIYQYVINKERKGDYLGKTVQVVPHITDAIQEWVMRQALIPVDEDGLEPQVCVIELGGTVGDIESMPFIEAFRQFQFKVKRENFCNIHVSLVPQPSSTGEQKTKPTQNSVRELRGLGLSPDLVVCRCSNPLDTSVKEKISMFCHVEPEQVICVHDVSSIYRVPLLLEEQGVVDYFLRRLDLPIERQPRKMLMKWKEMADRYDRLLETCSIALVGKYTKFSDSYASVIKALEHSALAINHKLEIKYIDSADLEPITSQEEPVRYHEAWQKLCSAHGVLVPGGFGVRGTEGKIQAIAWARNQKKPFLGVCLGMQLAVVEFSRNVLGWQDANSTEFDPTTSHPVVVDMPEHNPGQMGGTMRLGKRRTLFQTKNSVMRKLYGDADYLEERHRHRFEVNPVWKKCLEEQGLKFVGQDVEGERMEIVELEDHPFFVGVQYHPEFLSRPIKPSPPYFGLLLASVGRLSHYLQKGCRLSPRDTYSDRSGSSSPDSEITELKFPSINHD
Description: The enzyme inhibitory activities of compounds invented against the target of interest were determined using the ADP-Glo™ Max assay (Promega, UK). Assays for human CTPS1 were performed in 1× assay buffer containing 50 mM Tris, 10 mM MgCl2, 0.01% Tween-20, pH to 8.0 accordingly. Finally, immediately before use, L-cysteine was added to the 1× assay buffer to a final concentration of 2 mM. All reagents are from Sigma-Aldrich unless specified otherwise. Human full length active C-terminal FLAG-Hiss-tag CTPS1 (UniProtKB—P17812, CTPS[1-591]-[…]) was obtained from Proteros biostructures GmbH.
3× human CTPS1 protein was prepared in 1× assay buffer to the final working protein concentration required for the reaction. A 2 uL volume per well of 3× human CTPS1 protein was mixed with 2 uL per well of 3× test compound (compound prepared in 1× assay buffer to an appropriate final 3× compound concentration respective to the concentration response curve designed for the compounds under test) for 10 minutes at 25° C. The enzymatic reaction was then initiated by addition of a 2 uL per well volume of a pre-mixed substrate mix (UltraPure ATP from ADP-Glo™ Max kit (0.31 mM), GTP (0.034 mM), UTP (0.48 mM) and L-glutamine (0.186 mM)) and the mixture was incubated for an appropriate amount of time within the determined linear phase of the reaction at 25° C. under sealed plate conditions with constant agitation at 500 revolutions per minute (rpm). ADP-Glo™ Max reagent was added for 60 minutes (6 μL per well) and subsequently ADP-Glo™ Max development reagent was added for 60 minutes (12 uL per well) prior to signal detection in a microplate reader (EnVision® Multilabel Reader, Perkin Elmer). Following each reagent addition over the course of the assay, assay plates were pulse centrifuged for 30 seconds at 500 rpm.
In all cases, the enzyme converts ATP to ADP and the ADP-Glo™ Max reagent subsequently depletes any remaining endogenous ATP in the reaction system. The ADP-Glo™ Max detection reagent converts the ADP that has been enzymatically produced back into ATP and using ATP as a substrate together with luciferin for the enzyme luciferase, light is generated which produces a detectable luminescence. […] The percentage inhibition produced by each concentration of compound was calculated using the equation shown below: […]
(§1) Percentage inhibition was then plotted against compound concentration, and the 50% inhibitory concentration (IC50) was determined from the resultant concentration-response curve.

human CTPS1 versus CTPS2 = assay: Human CTPS1 versus CTPS2 selectivity assessment by RapidFire/MS analysis; type: biochemical; conditions: RapidFire/MS IC50 ratio
Description: Human CTPS1 versus CTPS2 Selectivity Assessment by RapidFire/MS Analysis.
The enzyme inhibitory activities against each target isoform of interest may be determined for the compounds of the invention using an optimised RapidFire high-throughput mass spectrometry (RF/MS) assay format. RF/MS assays for both human CTPS1 and CTPS2 may be performed in assay buffer consisting of 50 mM HEPES (Merck), 20 mM MgCl2, 5 mM KCl, 1 mM DTT, 0.01% Tween-20, pH to 8.0 accordingly. Human full-length active C-terminal FLAG-His-tag CTPS1 (UniProtKB—P17812, CTPS[1-591]-[…]) may be obtained from Proteros biostructures GmbH. Human full length active C-terminal FLAG-His-Avi tagged CTPS2 (UniProtKB-Q9NRF8, CTPS2 [1-586]-[…]) may be obtained from Harker Bio.
Human CTPS (1 or 2) protein may be prepared in 1× assay buffer to the final working protein concentration required for the reaction. A 2 uL volume per well of 2×CTPS (1 or 2) protein may be mixed with 40 nL of compound using acoustic (ECHO) delivery and incubated for 10 minutes at 25° C. Each isoform enzymatic reaction may be subsequently initiated by addition of 2 uL per well of a 2× substrate mix in assay buffer. For hCTPS1: ATP (0.3 mM), UTP (0.2 mM), GTP (0.07 mM) and L-glutamine (0.1 mM). For hCTPS2: ATP (0.1 mM), UTP (0.04 mM), GTP (0.03 mM) and L-glutamine (0.1 mM). Each mixture may be incubated for an appropriate amount of time per isoform within the determined linear phase of the reaction at 25′C. A 60 uL volume of stop solution (1% formic acid with 0.5 uM ^13C9-^15N3-CTP in H2O) may be added and the plate immediately heat-sealed and centrifuged for 10 minutes at 4,000 rpm. Following centrifugation, plates may be loaded onto the Agilent RapidFire microfluidic solid phase extraction system coupled to an API4000 triple quadrupole mass spectrometer (RF/MS) for analysis.
In all cases, the enzyme converts UTP to CTP. Highly specific and sensitive multiple reaction monitoring (MRM) MS methods may be optimised for the detection of the enzymatic reaction product, CTP, and the stable isotope labelled product standard ^13C9-^15N3-CTP. Readout for data analysis may be calculated as the ratio between the peak area of the product CTP and the internal standard ^13C9-^15N3-CTP. For data reporting, the following equation may be used: […]
For each screening plate, the means of the negative (DMSO) and positive control values were used for the calculation of the respective assay window (S/B) and Z′ values. The median of the respective control values was used for calculation of percent inhibition according to the following equation: […]
as §1
Fold selectivity between CTPS1 and CTPS2 was subsequently calculated according to the following equation: […]

[1] = Table 25, compounds wherein R1 is C1-5fluoroalkyl, read-out: CTPS1 (Human CTPS1 Enzyme Inhibition data grouped by potency range)

CCOc1cncc(-c2ccc(NC(=O)C3(c4ccnc(NS(=O)(=O)N(C)C)n4)CCOCC3)nc2)n1 [Example P248]
IC50 (human CTPS1; Table 24, read-out: CTPS1 (Human CTPS1 Enzyme Inhibition data grouped by potency range)): 0.1 to 1 µM | Selectivity (fold selectivity between CTPS1 and CTPS2) (human CTPS1 versus CTPS2; Table 27): +++ (>60 fold (+++))

CCOc1cncc(-c2ccc(NC(=O)C3(c4ccnc(NS(=O)(=O)CC(F)F)n4)CCOCC3)nc2)n1 [Example P271, 4-(2-((2,2-difluoroethyl)sulfonamido)pyrimidin-4-yl)-N-(5-(6-ethoxypyrazin-2-yl)pyridin-2-yl)tetrahydro-2H-pyran-4-carboxamide]
IC50 (human CTPS1; [1]): ≤ 0.1 µM

CC(C)Oc1cncc(-c2ccc(NC(=O)C(C)(C)c3ccnc(NS(=O)(=O)C4CC4)n3)nc2)n1 [Example P9]
IC50 (human CTPS1; Table 23, read-out: CTPS1 (Human CTPS1 Enzyme Inhibition data grouped by potency range)): ≤ 0.1 µM | Selectivity (fold selectivity between CTPS1 and CTPS2) (human CTPS1 versus CTPS2; Table 26): +++ (>60 fold (+++))

CCOc1cncc(-c2ccc(NC(=O)C(F)(CC)c3ccnc(NS(=O)(=O)CC(F)F)n3)nc2)n1 (stereo not drawn) [Example P284, 2-(2-((2,2-difluoroethyl)sulfonamido)pyrimidin-4-yl)-N-(5-(6-ethoxypyrazin-2-yl)pyridin-2-yl)-2-fluorobutanamide]
IC50 (human CTPS1; [1]): ≤ 0.1 µM

From patent publication US20230020663A1, “SULFONAMIDE INHIBITORS AS CTPS1 INHIBITORS” (Step Pharma S.A.S., priority 2019, published 2023)
